Experimental data reported in patent publication US10617664B2, “Brain derived PPARα ligands” (Rush University Medical Center, priority 2015, dated 2020).

Key:
Format in all cases: cell-based, mouse
[1] = system: PPRE-driven luciferase activity; experiment: PPRE-luciferase assay in Pparb-null astrocytes with PPARγ antagonist GW9662; conditions: Pparb-null astrocytes
Protocol: FIG. 16A) Pparb-null primary astrocytes plated at 60-70% confluence in 12-well plates were transfected with 0.25 μg of tkPPREx3-Luc (a PPRE-dependent luciferase reporter construct). Twenty-four hours after transfection, cells were treated with different concentrations of GW9662 for 30 min followed by stimulation with rosiglitazone. After 4 h, luciferase activities were assayed. […] After transfection, cells were also treated with GW9662 followed by stimulation with OCT (FIG. 16B), HEX (FIG. 16C) and HMB (FIG. 16D).
These astrocytes were pre-treated with PPARγ-antagonist GW9662 to nullify the involvement of PPARγ in reporter assay.

[2] = system: PPRE-driven luciferase activity; experiment: PPRE-luciferase assay in Ppara-null astrocytes transduced with Ppara constructs; conditions: Ppara-null astrocytes (empty vector)
Protocol: Astrocytes plated at 60-70% confluence were transfected with tk-PPREx3-Luc, a PPRE-dependent luciferase reporter construct. After 24 h of transfection, cells were treated with different concentrations of HEX (FIG. 10A), OCT (FIG. 10B) and HMB (FIG. 10C) for 4 h followed by monitoring luciferase activity. Under similar experimental condition, MTT was performed to understand the effect of these ligands on cell viability (FIG. 10D, HEX; FIG. 10E, OCT; FIG. 10F, HMB). Results are mean±SD of three independent experiments. ^ap<0.001 vs. control. Ppara-null astrocytes were transduced with lentivirions containing empty vector (FIG. 10G), FL-Ppara (FIG. 10H), Y314D-Ppara (FIG. 10I), Y464D-Ppara (FIG. 10J), and Y314D/Y464D-Ppara (FIG. 10K) for 48 h followed by transfection with tk-PPREx3-Luc. After 24 h of transfection, cells were treated with different doses of HEX, OCT and HMB for 4 h followed by monitoring luciferase activity. PPRE luciferase activity was assayed in Ppara-null astrocytes transduced with lentivirions containing empty vector (FIG. 10L), FL-Ppara (FIG. 10M), Y314D-Ppara (FIG. 10N), Y464D-Ppara (FIG. 10O), and Y314D/Y464D-Ppara (FIG. 10P) after treatment with different doses of WY14643, fenofibrate, and clofibrate. PPRE luciferase activity was assayed in primary hippocampal neurons transduced with lentivirions containing empty vector (FIG. 10Q), FL-Ppara (FIG. 10R), Y314D-Ppara (FIG. 10S), Y464D-Ppara (FIG. 10T), and Y314D/Y464D-Ppara (FIG. 10U) after treatment with different doses of HEX, OCT and HMB. Results are mean±SD of three independent experiments. ^ap<0.001 vs. control.

[3] = system: Ppara-null hippocampal neurons; experiment: Dendritic spine density (phalloidin) in transduced Ppara-null hippocampal neurons; conditions: lenti-FL-Ppara
Protocol: Ppara-null hippocampal neurons were transduced with lentivirions containing GFP (vector), FL-Ppara, and Y464D-Ppara for 48 h followed by treatment with vehicle (DMSO) (FIG. 11A), OCT (FIG. 11B), HEX (FIG. 11C), HMB (FIG. 11D), and WY14643 (FIG. 11E) for 24 h. Then neurons were stained for phalloidin to measure spine density. FIG. 11F) A representative picture of dendrite with spines (Cyan color) used for counting area of spine heads. Area of spine heads (FIG. 11G) and number of spines (FIG. 11H) in 10 μm of dendrites. Results are mean±SEM of 5 neurons per group. ^ap<0.05 vs vector only; ^bp<0.05 vs FL-Ppara. AMPA-driven calcium influx was measured in OCT (red), HEX (green) and HMB (purple)-treated Ppara-null hippocampal neurons transduced with lentivirions containing FL-Ppara (FIG. 11I), Y314D-Ppara (FIG. 11J), Y464D-Ppara (FIG. 11K), and Y314D/Y464D-Ppara (FIG. 11L). All neurons were treated with 50 μM of NMDA receptor antagonist N20C to inhibit passive calcium flow through NMDA receptor. (FIG. 11M-P) Similarly NMDA-driven calcium influx was measured in the lentivius-infected Ppara-null hippocampal neurons in the presence of different endogenous ligands. In these cases, Naspm-HCl was treated to stop the passive flow of calcium currents through AMPA receptor. Results are mean of three independent experiments.
Dendritic spines are the crucial mediators of synaptic transmission among central neurons and often serve as a primary candidate for the long term morphological substrates of neuronal plasticity^12,13. Therefore, the effect of these ligands on the increase of spine density in cultured hippocampal neurons was studied. Briefly, mouse Ppara-null hippocampal neurons were transduced with lentivirus containing empty vector, FL-Ppara, or Y464D-Ppara for a week followed by the treatment with OCT, HEX, and HMB for four more days. After that, neurons were labelled with phalloidin to monitor the spine density. […] This observation was further validated by measuring the area of spine heads (FIG. 11F-G) and number of spines (FIG. 11H) in HEX, OCT, and HMB-treated Ppara-null neurons. HEX (FIG. 17G-H), OCT (FIG. 17I-J) and HMB (FIG. 17K-L) stimulated the expression of CREB in Ppara-null hippocampal neurons that were transduced with lentivirons containing the FL-Ppara gene.
Hippocampal regions were dissected from 18-day-old embryonic fetus as described elsewhere (PMID: 25007337), combined and plated in poly-D-lysine coated plate for another 2-3 weeks for branching. After that, these neurons were transduced with GFP-containing lentivirions for 2 d. Neurons were stained with Dylight-554-conjugated phalloidin (Cat #21834; Thermofisher) as per manufactures protocol and visualized in fluorescence microscope. […]

SMILES | effect on rosiglitazone-mediated increase in PPRE-luciferase activity [1] | PPRE-driven luciferase activity [2] | density of spines [3]
O=C(Nc1ccccc1)c1cc([N+](=O)[O-])ccc1Cl [GW9662, reference compound] | Inhibition |  | 
Cc1cccc(Nc2cc(Cl)nc(SCC(=O)O)n2)c1C [WY14643, reference compound] |  | unable to induce | stimulated
